Like-named read-outs stand apart in the source and are kept apart here.
Experiments:
hROMK (hKir1.1) = hROMK (hKir1.1) (Homo sapiens (Human), UniProt P48048); experiment: Thallium Flux Assay (ROMK channel functional thallium flux, FLIPR-Tetra); assay type: cell-based
Experimental: Another ROMK functional assay makes use of the ability of thallium to permeate through open ROMK channels and increase the fluorescence of a dye previously loaded into the cells. Under control conditions, cells loaded with dye and exposed to thallium-containing medium display a time-dependent increase in fluorescence, the rate of which depends on number of functional channels. When cells are incubated in the presence of a channel inhibitor, the increase in fluorescence is attenuated in a concentration-dependent manner, and IC50 values of inhibition by compounds can be accurately determined. This assay has been established with cell lines expressing either human, or rat ROMK channels, and operates in 384-well format.
HEK293 cells stably expressing hROMK (hKir1.1) were grown at 37° C. in a 10% CO2 humidified incubator in complete growth media: Dulbecco's Modified Eagle Medium supplemented with non-essential amino acids, Penicillin/Streptomycin/Glutamine, G418 and FBS. At >80% confluency, the media was aspirated from the flask and the sample was rinsed with 10 ml Calcium/Magnesium-free PBS. […] To dislodge the cell, the side of the flask was gently banged with a hand. The cells were triturated completely and then transferred to 25 ml complete media. The sample was then centrifuged at 1,500 rpm for 6 minutes, followed by resuspension in complete growth media and then cell concentration was determined. […] Under ideal growth conditions and appropriate tissue culture practices, this cell line is stable for 40-45 passages.
FluxOR Kit Components (Invitrogen F10017)
• FluxOR™ Reagent (Component A) • FluxOR™ Assay Buffer (Component B)—10× Concentrate • PowerLoad™ Concentrate (Component C)—100× Concentrate • Probenecid (Component D)—Lyophilized sample is kept at −20° C. Water soluble, 100× after solubilization in 1 ml water. […] Store at 4° C. • Thallium sulfate (Tl2SO4) Concentrate (Component G)—50 mM in water. Store at 4° C. • DMSO (dimethyl sulfoxide, Component H)—1 ml (100%) Reagent Preparation— FluxOR Working Solutions • 1000× FluxOR™ Reagent: Reconstitute a vial of component A in 100 μl DMSO; Mix well; Store 10 μl aliquots at −20° C. • 1× FluxOR™ Assay Buffer: Dilute Component B 10-fold with water; Adjust pH to 7.4 with Hepes/NaOH; Filter and store at 4° C. • Probenecid/Assay Buffer: 100 ml of 1× FluxOR™ Assay Buffer; 1 ml of reconstituted component D; Store at 4° C. • Loading Buffer (per microplate): 10 μl 1000× FluxOR™ Reagent; 100 μl component C; 10 ml Probenecid/Assay Buffer • Compound Buffer (per microplate): 20 ml Probenecid/Assay Buffer; 0.3 mM ouabain (10 mM ouabain in water can be stored in amber bottle/aluminum foil at room temperature);
Test compound • 1× FluxOR™ Chloride-Free Buffer: Prepare 1× working solution in water. Can be stored at room temperature • Stimulant Buffer (prepared at 5× final concentration in 1× FluxOR™ Chloride-Free Buffer): 7.5 mM Thallium sulfate and 0.75 mM Potassium sulfate (to give a final assay concentration of 3 mM Thallium/0.3 mM Potassium). Store at 4° C. when not in use. If kept sterile, this solution is good for months. Assay Protocol—
The ROMK channel functional thallium flux assay is performed in 384 wells, using the FLIPR-Tetra instrument. HEK-hKir1.1 cells are seeded in Poly-D-Lysine microplates and kept in a 37° C.-10% CO2 incubator overnight. On the day of the experiment, the growth media is replaced with the FluxOR™ reagent loading buffer and incubated, protected from light, at ambient temperature (23-25° C.) for 90 min. The loading buffer is replaced with assay buffer±test compound followed by 30 min incubation at ambient temperature, where the Thallium/Potassium stimulant is added to the microplate.
• 1. Seed HEK-hKir1.1 cells (50 μl at 20,000 cells/well) in 384-well PDL coated Microplates • 2. Allow cells to adhere overnight in humidified 37° C./10% CO2 incubator • 3. Completely remove cell growth media from microplate and replace with 25 μl loading buffer • 4.

Kir1.1 (ROMK1) = Kir1.1 (ROMK1) (Homo sapiens (Human), UniProt P48048); experiment: Electrophysiology Assay (whole cell voltage clamp, IonWorks Quattro); assay type: cell-based; details: read-out: EP Assay IC50
Kir1.1 (ROMK1), sequence (P48048 whole entry, species assumed): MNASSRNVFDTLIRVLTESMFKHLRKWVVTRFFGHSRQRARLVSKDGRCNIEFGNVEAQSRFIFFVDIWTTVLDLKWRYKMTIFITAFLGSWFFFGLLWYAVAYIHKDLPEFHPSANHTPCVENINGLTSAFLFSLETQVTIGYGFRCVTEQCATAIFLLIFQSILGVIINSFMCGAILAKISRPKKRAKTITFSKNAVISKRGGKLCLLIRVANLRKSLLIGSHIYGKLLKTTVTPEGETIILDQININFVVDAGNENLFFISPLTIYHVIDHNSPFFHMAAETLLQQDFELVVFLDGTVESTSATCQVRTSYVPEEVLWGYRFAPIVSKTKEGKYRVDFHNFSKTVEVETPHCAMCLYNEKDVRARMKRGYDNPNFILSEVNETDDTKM
From the text: Several assays may be used to measure functional inhibition of the ROMK channel by compounds of the instant invention. One assay that can be used is an electrophysiology assay that measures the electrical current that is generated as potassium permeates through the channel.
Block of Kir1.1 (ROMK1) currents was examined by whole cell voltage clamp (Hamill et. al. Pfluegers Archives 391:85-100 (1981)) using the IonWorks® Quattro automated electrophysiology platform (Molecular Devices, Sunnyvale, Calif.). Chinese hamster ovary cells stably expressing Kir1.1 channels were maintained in T-75 flasks in cell culture media in a humidified 10% CO2 incubator at 37° C. Prior to an experiment, Kir1.1 expression was induced by overnight incubation with 1 mM sodium butyrate. On the day of the experiment, cells were dissociated with 2.5 ml of Versene™ (Invitrogen 15040-066) for approximately 6 minutes at 37° C. and suspended in 10 ml of bath solution containing (in mM): 150 NaCl, 10 KCl, 2.7 CaCl2, 0.5 MgCl2, 5 HEPES, pH 7.4. After centrifugation, the cell pellet was resuspended in approximately 4.0 ml of bath solution and placed in the IonWorks® instrument. The intracellular solution consisted of (in mM): 80 K gluconate, 40 KCl, 20 KF, 3.2 MgCl2, 3 EGTA, 5 Hepes, pH 7.4. Electrical access to the cytoplasm was achieved by perforation in 0.13 mg/ml amphotericin B for 4 minutes. Amphotericin B (Sigma A-4888) was prepared as a 40 mg/ml solution in DMSO.
Voltage protocols and current recordings were performed using the IonWorks® HT software/hardware system. Currents were sampled at 1 kHz. No correction for liquid junction potentials was used. The test pulse, consisting of a 100 ms step to 0 mV from a holding potential of −70 mV, followed by a 100 ms voltage ramp from −70 mV to +70 mV, was applied before and after a 6 minutes compound incubation period. Test compounds were prepared by diluting DMSO stock solutions into the bath solution at 3× the final concentration and placed in the instrument in 96-well polypropylene plates. Current amplitudes were measured using the IonWorks® software. To assess compound potency, the fractional block during the voltage step to 0 mV was calculated in Microsoft® Excel (Microsoft, Redmond, Calif.), and dose-response curves were fitted with Igor Pro 4.0 (WaveMetrics, Lake Oswego, Oreg.).

[1] = HEK293 cells stably expressing hROMK (hKir1.1), read-out: Thallium Flux Assay IC50
[2] = Chinese hamster ovary cells stably expressing Kir1.1, block during voltage step to 0 mV

hROMK (hKir1.1), sequence (P48048 whole entry): as the sequence (P48048 whole entry, species assumed) above

Row | Structure (SMILES) | IC50 (hROMK (hKir1.1); [1]) [µM] | IC50 (Kir1.1 (ROMK1); [2]) [µM] | IC50 (hROMK (hKir1.1); Thallium Flux Assay IC50) [µM] | IC50 (Kir1.1 (ROMK1)) [µM]
1 | Cc1c([C@@H](O)CN2CC3COCC(C2)N3C[C@H](O)c2ccc3c(c2C)COC3=O)ccc2c1COC2=O [Example 18, 5,5′-(1R,1′R)-2,2′-(3-Oxa-7,9-diazabicyclo[3.3.1]nonane-7,9-diyl)bis(1-hydroxyethane-2,1-diyl)bis(4-methylisobenzofuran-1(3H)-one)] | 0.0308 | 0.03 |  | 
2 | Cc1c([C@@H](O)CN2CC3COCC(C2)N3CC(O)c2ccc(C#N)cn2)ccc2c1COC2=O (stereo partly drawn) [Example 20, 6-(1-Hydroxy-2-(7-((R)-2-hydroxy-2-(4-methyl-1-oxo-1,3-dihydroisobenzofuran-5-yl)ethyl)-3-oxa-7,9 diazabicyclo[3.3.1]nonan-9-yl)ethyl)nicotinonitrile] | 0.078 | 0.0295 |  | 
3 | Cc1c([C@@H](O)CN2C3COCC2CN(CCc2ccc4c(c2)C[C@@H](C)OC4=O)C3)ccc2c1COC2=O [Example 21, (R)-6-(2-(9-((R)-2-Hydroxy-2-(4-methyl-1-oxo-1,3-dihydroisobenzofuran-5-yl)ethyl)-3-oxa-7,9-diazabicyclo[3.3.1]nonan-7-yl)ethyl)-3-methylisochroman-1-one] |  |  | 0.036 | 0.045
4 | Cc1c([C@@H](O)CN2C3COCC2CN(CCc2ccc4c(c2)C[C@H](C)OC4=O)C3)ccc2c1COC2=O [Example 22, (S)-6-(2-(9-((R)-2-Hydroxy-2-(4-methyl-1-oxo-1,3-dihydroisobenzofuran-5-yl)ethyl)-3-oxa-7,9-diazabicyclo[3.3.1]nonan-7-yl)ethyl)-3-methylisochroman-1-one] |  |  | 0.0427 | 0.032
5 | Cc1c([C@@H](O)CN2CCN(CCc3ccc4c(c3)C[C@@H](C)OC4=O)CC2)ccc2c1COC2=O [Example 28, 4-[(2R)-2-Hydroxy-2-(4-methyl-1-oxo-1,3-dihydro-2-benzofuran-5-yl)ethyl]-1-{2-[(3R)-3-methyl-1-oxo-3,4-dihydro-1H-isochromen-6-yl]ethyl}piperazine] | 0.022 | 0.033 |  | 
6 | Cc1c([C@H](O)CN2CCN(CCc3ccc4c(c3)C[C@@H](C)OC4=O)CC2)ccc2c1COC2=O [Example 29, (R)-6-(2-(4-((S)-2-Hydroxy-2-(4-methyl-1-oxo-1,3-dihydroisobenzofuran-5-yl)ethyl)piperazin-1-yl)ethyl)-3-methylisochroman-1-one] | 0.185 | 0.145 |  | 
7 | Cc1c([C@@H](O)CN2CCN(CCc3ccc4c(c3)CCOC4=O)CC2)ccc2c1COC2=O [Example 30, (R)-6-(2-(4-(2-Hydroxy-2-(4-methyl-1-oxo-1,3-dihydroisobenzofuran-5-yl)ethyl)piperazin-1-yl)ethyl)isochroman-1-one] | 0.056 | 0.021 |  | 
8 | Cc1c([C@H](O)CN2CCN(CCc3ccc4c(c3)CCOC4=O)CC2)ccc2c1COC2=O [Example 31, (S)-6-(2-(4-(2-Hydroxy-2-(4-methyl-1-oxo-1,3-dihydroisobenzofuran-5-yl)ethyl)piperazin-1-yl)ethyl)isochroman-1-one] | 0.318 | 0.564 |  | 
9 | CCc1c(C(O)CN2CCN(CCc3ccc4c(c3)CCOC4=O)CC2)ccc2c1COC2=O (centres unmarked) [Example 32, 6-(2-(4-(2-(4-Ethyl-1-oxo-1,3-dihydroisobenzofuran-5-yl)-2-hydroxyethyl)piperazin-1-yl)ethyl)isochroman-1-one] | 0.071 | 0.046 |  | 
10 | O=C1OCCc2cc(CCN3CCN(CC(O)c4ccc5c(c4C(F)(F)F)COC5=O)CC3)ccc21 (centres unmarked) [Example 33, 6-(2-(4-(2-Hydroxy-2-(1-oxo-4-(trifluoromethyl)-1,3-dihydroisobenzofuran-5-yl)ethyl)piperazin-1-yl)ethyl)isochroman-1-one] | 0.293 | 0.038 |  | 

— patent publication US9139585B2 (Merck Sharp & Dohme Corp., priority 2011, dated 2015)
